Reference: PMC3467217, “A Potent Class of GPR40 Full Agonists Engages the EnteroInsular Axis to Promote Glucose Control in Rodents” (PLoS ONE, 2012)
Each block holds one compound with its values, some of them ahead of it.

Experiments:
[1] = target: T1, GPR40 (Homo sapiens, UniProt O14842); assay: Inositol phosphate accumulation assay in A9 cells stably expressing GPR40 (A9_GPR40); format: cell-based; details: for agonist character: inositol phosphate accumulation, A9 cells stably expressing GPR40 (figure S1)
T1 construct: expressed in transfected cells; host or cells: CHO cell line stably expressing GPR40 and aequorin
T1 sequence (O14842 whole entry): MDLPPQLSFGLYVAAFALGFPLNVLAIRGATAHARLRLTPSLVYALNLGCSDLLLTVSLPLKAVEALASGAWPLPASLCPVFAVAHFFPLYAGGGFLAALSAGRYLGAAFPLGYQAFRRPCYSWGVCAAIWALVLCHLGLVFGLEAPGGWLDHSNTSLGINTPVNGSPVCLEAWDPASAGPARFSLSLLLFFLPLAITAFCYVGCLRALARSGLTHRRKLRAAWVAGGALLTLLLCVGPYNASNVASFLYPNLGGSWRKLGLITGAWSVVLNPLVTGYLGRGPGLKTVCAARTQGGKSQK
Description: (§1) GPR40 aequorin, plasmid titration, and inositol phosphate assays were performed as described. For aequorin assays, in addition to transient transfection of GPR40 into CHO cells, a CHO cell line stably expressing both GPR40 and aequorin was generated. GLUTag cells were obtained under a license from Dr. Daniel Drucker, University of Toronto. Competition binding experiments were performed using membranes prepared from A9_GPR40 cells. […] Competition binding assays were carried out in 20 mM Hepes pH 7.5, 5 mM MgCl2, 100 mM NaCl and 0.1% (w/v) free fatty acid BSA and bound radioligand was collected on 96-well GF/C filter plates.
(A) Structure of selected GPR40 agonists. (B) GPR40 agonists were tested in parallel in vitro in an inositol phosphate accumulation assay in A9 cells stably expressing GPR40. (TIF) Click here for additional data file.

[2] = target: T1, GPR40; assay: Aequorin Ca2+ flux assay in CHO cell line stably expressing GPR40; format: cell-based; details: CHO-GPR40 stable cell line; for Emax: compared to natural free fatty acid ligands, read-out: Emax (efficacy)
Description: Since GPR40 agonists with greater intrinsic activity may have improved anti-diabetic properties, we focused our efforts to discover potent synthetic full agonists.
as §1

[3] = test system: wild type and GPR40 knockout mice; assay: OGTT and GLP-1 secretion in wild type and GPR40 null mice; format: in vivo, mouse; details: OGTT, single oral dose
Description: (§2) All procedures on animals were approved by the Amgen San Francisco Institutional Animal Care and Use Committee (approved protocols #11–04 and #2007–00106). The Amgen San Francisco vivarium is an AAALAC accredited facility. Animals were housed under a 12-h light, 12-h dark cycle (lights-on 0600 h and lights-off 1800 h) and were allowed ad libidum access to chow and water. The HF/STZ mice were established as previously described. Briefly, C57BL/6j mice (Jackson labs) at 4 weeks of age were fed a high-fat diet (BioServ S1850, 35% fat) for 3-weeks and then injected with 95 mg/kg streptozotocin (Sigma) ip to induce beta cell dysfunction. The animals continued on the same high fat diet for 3–6 additional weeks. Animals were then randomized into treatment groups based on fasting blood glucose and insulin measures. NONcNZO10/LtJ (RCS10) male mice (Jackson labs) were used at 12-weeks of age and randomized for treatment based on fasting glucose levels. For OGTT experiments, drugs were formulated in 1% HPMC, 10% HPbCD, 1% Tween-80 and dosed via oral gavage. Glucose was administered at 2 g/kg 1-hour post drug dose by oral gavage.
(§3) For all glucose tolerance tests, glucose and insulin measurements were taken from tail vein samples at various time-points. Blood glucose values were measured on an Accu-Chek glucometer (Roche Diagnostics), while insulin levels were determined using an ELISA (Alpco).

[4] = target: T2, GPR41 (FFAR3) (Homo sapiens, UniProt O14843); assay: GPR41 aequorin assay; format: cell-based; details: up to 10 µM
T2 construct: expressed in transfected cells
T2 sequence (O14843 whole entry, species assumed): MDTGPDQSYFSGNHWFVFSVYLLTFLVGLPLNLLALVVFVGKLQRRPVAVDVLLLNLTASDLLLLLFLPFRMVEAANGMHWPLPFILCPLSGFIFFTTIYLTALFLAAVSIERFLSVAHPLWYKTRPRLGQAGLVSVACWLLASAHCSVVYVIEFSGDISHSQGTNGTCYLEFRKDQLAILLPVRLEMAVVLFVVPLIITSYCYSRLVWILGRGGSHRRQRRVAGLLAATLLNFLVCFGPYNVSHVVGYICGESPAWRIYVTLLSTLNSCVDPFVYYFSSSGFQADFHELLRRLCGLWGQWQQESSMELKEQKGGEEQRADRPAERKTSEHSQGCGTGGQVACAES
Source text: (§4) (A) GPR41 (FFAR3) aequorin assay. GPR41 was force coupled to the calcium signaling pathway by co-transfecting the cells with Gqmyri5. (B) GPR43 (FFAR2) aequorin assay. The short chain fatty acid propionate acts as a natural agonist ligand for GPR41 and GPR43. (C) GPR120 aequorin assay. The unsaturated fatty acids α-LNN and DHA act as natural agonist ligands for GPR120. (D) PPAR-gamma luciferase assay using the thiazolidinedione rosiglitazone as a positive control. […] (TIF) Click here for additional data file.

[5] = test system: mouse islets; assay: GSIS assay in mouse islets; format: cell-based; details: 16.7 mM glucose
Description: (§5) Mouse islets were isolated and tested for stimulation of GSIS as described. Human islets were purchased from Prodo labs or were obtained from the National Institutes of Health and Juvenile Diabetes Research Foundation supported Islet Cell Resource Consortium (http://icr.coh.org). Islet inositol phosphate assays were performed on islets cells that had been dispersed with trypsin. 10,000 islet cells were plated/well of a 96-well plate and were loaded with ^3H-myo-inositol (0.5 µCi/well) in RPMI overnight prior to treatment. The next day, response to different stimuli was tested in HBSS containing 10 mM LiCl and 0.1% HSA (w/v) for 1 hour at 37°C. Accumulated ^3H-inositol phosphate was measured after capture to SPA beads. Islet perifusion experiments were performed on mouse islets loaded into a Brandel Suprafusion system. Twenty islets were size-matched and loaded per perifusion chamber. Islets were perifused in KRBH containing, sequentially, 3 mM glucose, then 3 mM glucose containing 10 µM drug, 16.7 mM glucose containing 10 µM drug and finally returned to 3 mM glucose containing 10 µM drug. Insulin was measured using an insulin ELISA kit (Alpco). Fetal rat intestinal cells were isolated from e19-day old fetuses of pregnant Sprague-Dawley rats. Briefly, fetal intestines were isolated and digested in HBSS buffer containing 0.5 mg/ml collagenase (Sigma), 0.5 mg/ml of hyaluronidase (Sigma) and 0.05 mg/ml of deoxyribonuclease I (Roche) for 30 minutes at 37°C. The digestion was quenched using HBSS containing 15% FBS. Fetal rat intestinal cells were washed and cultured overnight in DMEM containing 5% FBS in 96-well plates. To test for secretion of GLP-1 and GIP in response to treatments, we incubated cells for 1 hour with treatments in KRBH buffer containing 0.05% BSA (w/v). GLP-1 and GIP1 secreted into the media was measured using ELISA kits specific for GLP-1 (Linco) or GIP (Millipore).

[6] = test system: GLUTag cells; assay: Inositol phosphate accumulation assay in GLUTag enteroendocrine L-cell line; format: cell-based, mouse
Description: (§6) Increased GLP-1 and GIP would be expected to have additional benefits in type 2 diabetics. […] We tested for potential effects on incretin secretion in vitro by using cells isolated from fetal rat intestines.
as §1

[7] = test system: human islets; assay: GSIS assay with human islets; format: cell-based; details: 12.5 mM glucose
Description: as §5, with “Briefly, fetal intestines were isolated and digested in HBSS buffer containing 0.5 mg/ml collagenase (Sigma), 0.5 mg/ml of hyaluronidase (Sigma) and 0.05 mg/ml of deoxyribonuclease I (Roche) for 30 minutes at 37°C. The digestion was quenched using HBSS containing 15% FBS. Fetal rat intestinal cells were washed and cultured overnight in DMEM containing 5% FBS in 96-well plates. To test for secretion of GLP-1 and GIP in response to treatments, we incubated cells for 1 hour with treatments in KRBH buffer containing 0.05% BSA (w/v).” left out

[8] = target: PPAR alpha (Homo sapiens, UniProt Q07869); assay: PPAR-alpha luciferase reporter assay; format: cell-based; details: concentrations up to 10 µM
PPAR alpha, sequence (Q07869 whole entry, species assumed): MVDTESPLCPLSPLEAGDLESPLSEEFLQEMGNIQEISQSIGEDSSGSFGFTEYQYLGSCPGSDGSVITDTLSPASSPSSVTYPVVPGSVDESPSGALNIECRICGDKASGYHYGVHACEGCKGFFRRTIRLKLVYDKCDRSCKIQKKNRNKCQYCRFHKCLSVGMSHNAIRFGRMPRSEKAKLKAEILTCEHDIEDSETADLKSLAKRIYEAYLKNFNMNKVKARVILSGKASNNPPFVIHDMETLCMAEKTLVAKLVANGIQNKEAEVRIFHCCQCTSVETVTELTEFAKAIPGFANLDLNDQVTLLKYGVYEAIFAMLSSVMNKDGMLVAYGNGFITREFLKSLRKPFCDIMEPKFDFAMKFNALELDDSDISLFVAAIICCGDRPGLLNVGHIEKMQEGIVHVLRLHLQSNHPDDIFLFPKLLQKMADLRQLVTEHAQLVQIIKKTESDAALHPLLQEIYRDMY

[9] = target: T3, GPR43 (FFAR2) (Homo sapiens, UniProt O15552); assay: GPR43 aequorin assay; format: cell-based; details: up to 10 µM
T3 construct: expressed in transfected cells
T3 sequence (O15552 whole entry, species assumed): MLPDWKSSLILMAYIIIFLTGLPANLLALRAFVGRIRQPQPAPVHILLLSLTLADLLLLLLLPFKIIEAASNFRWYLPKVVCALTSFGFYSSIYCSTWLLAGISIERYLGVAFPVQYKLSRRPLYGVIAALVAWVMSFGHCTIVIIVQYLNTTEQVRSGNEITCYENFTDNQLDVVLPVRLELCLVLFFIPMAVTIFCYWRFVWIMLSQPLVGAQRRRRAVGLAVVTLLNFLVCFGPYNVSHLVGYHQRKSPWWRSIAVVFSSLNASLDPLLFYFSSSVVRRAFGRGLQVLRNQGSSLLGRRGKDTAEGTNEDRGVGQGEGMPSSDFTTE
Source text: as §4

[10] = target: PPAR delta (Homo sapiens, UniProt Q03181); assay: PPAR-delta luciferase reporter assay; format: cell-based; details: concentrations up to 10 µM
PPAR delta, sequence (Q03181 whole entry): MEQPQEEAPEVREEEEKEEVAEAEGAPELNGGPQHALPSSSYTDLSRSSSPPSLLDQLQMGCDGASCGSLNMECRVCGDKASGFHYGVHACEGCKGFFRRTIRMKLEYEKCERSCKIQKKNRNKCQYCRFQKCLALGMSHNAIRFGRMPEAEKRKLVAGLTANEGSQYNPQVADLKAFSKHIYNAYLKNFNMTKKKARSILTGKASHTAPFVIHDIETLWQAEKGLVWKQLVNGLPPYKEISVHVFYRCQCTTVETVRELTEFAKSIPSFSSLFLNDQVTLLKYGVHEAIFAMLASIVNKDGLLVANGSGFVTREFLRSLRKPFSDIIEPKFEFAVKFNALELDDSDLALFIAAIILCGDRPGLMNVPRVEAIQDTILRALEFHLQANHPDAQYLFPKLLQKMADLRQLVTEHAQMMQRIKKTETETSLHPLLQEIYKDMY

[11] = target: PPAR gamma (Homo sapiens, UniProt P37231); assay: PPAR-gamma luciferase assay; format: cell-based; details: concentrations up to 10 µM
PPAR gamma, sequence (P37231 whole entry): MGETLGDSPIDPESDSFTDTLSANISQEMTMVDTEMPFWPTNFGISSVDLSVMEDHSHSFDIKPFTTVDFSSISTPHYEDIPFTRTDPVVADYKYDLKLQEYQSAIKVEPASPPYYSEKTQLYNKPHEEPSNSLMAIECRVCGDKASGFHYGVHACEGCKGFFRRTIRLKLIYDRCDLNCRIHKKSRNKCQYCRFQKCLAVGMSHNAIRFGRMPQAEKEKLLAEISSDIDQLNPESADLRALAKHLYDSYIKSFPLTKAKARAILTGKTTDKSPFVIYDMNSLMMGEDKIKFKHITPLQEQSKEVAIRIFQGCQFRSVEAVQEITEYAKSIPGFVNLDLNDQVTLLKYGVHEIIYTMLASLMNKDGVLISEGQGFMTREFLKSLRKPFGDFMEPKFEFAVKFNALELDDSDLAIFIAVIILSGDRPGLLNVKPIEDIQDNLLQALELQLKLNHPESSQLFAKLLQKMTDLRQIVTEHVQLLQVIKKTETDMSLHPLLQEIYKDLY
Source text: as §4

[12] = test system: islets isolated from GPR40 knockout mice; assay: GSIS assay with islets from GPR40 knock-out mice; format: cell-based, mouse
Description: as §5

[13] = test system: human islet cells; assay: Inositol phosphate assay with dispersed human islet cells; format: cell-based
Description: as §5, with “Briefly, fetal intestines were isolated and digested in HBSS buffer containing 0.5 mg/ml collagenase (Sigma), 0.5 mg/ml of hyaluronidase (Sigma) and 0.05 mg/ml of deoxyribonuclease I (Roche) for 30 minutes at 37°C. The digestion was quenched using HBSS containing 15% FBS. Fetal rat intestinal cells were washed and cultured overnight in DMEM containing 5% FBS in 96-well plates. To test for secretion of GLP-1 and GIP in response to treatments, we incubated cells for 1 hour with treatments in KRBH buffer containing 0.05% BSA (w/v).” left out

[14] = target: T1, GPR40; assay: Competition binding with 3H-AM-1638 on A9_GPR40 membranes; details: unlabelled competitor
Description: as §1

[15] = target: T4, GPR120 (Homo sapiens, UniProt Q5NUL3); assay: GPR120 aequorin assay; format: cell-based; details: weak activity
T4 construct: expressed in transfected cells
T4 sequence (Q5NUL3 whole entry, species assumed): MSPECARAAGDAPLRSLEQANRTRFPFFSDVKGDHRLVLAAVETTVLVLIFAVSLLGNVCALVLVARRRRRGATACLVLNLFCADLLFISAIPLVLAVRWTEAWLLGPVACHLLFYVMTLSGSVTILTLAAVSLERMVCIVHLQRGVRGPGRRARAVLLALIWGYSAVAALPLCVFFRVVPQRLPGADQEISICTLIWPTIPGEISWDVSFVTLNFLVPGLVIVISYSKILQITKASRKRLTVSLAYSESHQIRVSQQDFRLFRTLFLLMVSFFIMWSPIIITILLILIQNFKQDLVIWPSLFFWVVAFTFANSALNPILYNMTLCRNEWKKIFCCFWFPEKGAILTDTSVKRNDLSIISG
Source text: as §4

[16] = test system: mouse islets; assay: Mouse islet perifusion assay; format: cell-based; details: 10 µM compound
Description: as §5

[17] = test system: fetal rat intestinal cells; assay: GLP-1 secretion assay with fetal rat intestinal cells; format: cell-based; details: 1 hour
Source text: as §6
Mouse islets were isolated and tested for stimulation of GSIS as described. Human islets were purchased from Prodo labs or were obtained from the National Institutes of Health and Juvenile Diabetes Research Foundation supported Islet Cell Resource Consortium (http://icr.coh.org). Islet inositol phosphate assays were performed on islets cells that had been dispersed with trypsin. 10,000 islet cells were plated/well of a 96-well plate and were loaded with ^3H-myo-inositol (0.5 µCi/well) in RPMI overnight prior to treatment. The next day, response to different stimuli was tested in HBSS containing 10 mM LiCl and 0.1% HSA (w/v) for 1 hour at 37°C. Accumulated ^3H-inositol phosphate was measured after capture to SPA beads. Islet perifusion experiments were performed on mouse islets loaded into a Brandel Suprafusion system. Twenty islets were size-matched and loaded per perifusion chamber. […] Insulin was measured using an insulin ELISA kit (Alpco). […] GLP-1 and GIP1 secreted into the media was measured using ELISA kits specific for GLP-1 (Linco) or GIP (Millipore).

[18] = test system: HF/STZ mice; assay: OGTT in high-fat fed, streptozotocin-treated (HF/STZ) type 2 diabetic mice; format: in vivo, mouse
Description: as §2, §3

[19] = test system: HF/STZ mice; assay: Single oral dose without glucose challenge in HF/STZ mice: GLP-1, insulin, glucose, GIP; format: in vivo, mouse
Description: The increase in insulin secretion by GPR40 agonists is due to direct stimulation of GPR40 receptors on pancreatic β-cells, but may also be derived from stimulation of the gut peptides GLP-1 and GIP, which subsequently act on the GLP-1 and GIP G protein-coupled receptors found on pancreatic β-cells. […] No glucose challenge was performed in order to isolate the effects of the compounds alone.
as §2

[20] = test system: Zucker fatty rats; details: 21-day, qd dosing; cited from earlier work
[21] = test system: humans; details: cited from earlier work
[22] = target: mouse GPR40 (Mus musculus, UniProt Q76JU9); assay: Mouse GPR40 inositol phosphate accumulation assay; format: cell-based
mouse GPR40, sequence (Q76JU9 whole entry): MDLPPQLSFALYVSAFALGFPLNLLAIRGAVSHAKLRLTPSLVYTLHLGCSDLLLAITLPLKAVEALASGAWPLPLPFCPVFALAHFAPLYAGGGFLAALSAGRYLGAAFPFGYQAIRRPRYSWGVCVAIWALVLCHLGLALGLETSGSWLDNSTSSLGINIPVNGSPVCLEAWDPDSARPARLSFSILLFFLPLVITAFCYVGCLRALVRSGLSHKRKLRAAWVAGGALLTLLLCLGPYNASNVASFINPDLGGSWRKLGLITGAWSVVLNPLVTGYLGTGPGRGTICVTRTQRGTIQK
Description: as §1

[23] = Unbound plasma drug concentration in HF/STZ mice; format: in vivo; details: C57BL/6j, mouse, 100 mg/kg oral, 1-hour post drug administration, by MS, read-out: free drug level in plasma

Compound: N[C@@H](CC(=O)N1CCn2c(nnc2C(F)(F)F)C1)Cc1cc(F)c(F)cc1F [sitagliptin, reference compound]
improvement in pre- and post-challenge glucose levels ([3]; GPR40 knockout mice): maintained in both
improvement in pre- and post-challenge glucose levels ([3]; wild type mice): maintained in both

Compound: Exendin-4: exerts its effects via GLP-1R [reference compound]
GSIS response of GPR40 knockout islets [12]: did respond

Compound: CC#CC(CC(=O)O)c1ccc(OCc2ccc(-c3cccc(OC)c3)cc2)cc1 (racemic) [(±)-AM-8596]
EC50 [2]: 1500 ± 170 nM
Emax [2]: 98%

Compound: Cc1cc(OCCCS(C)(=O)=O)cc(C)c1-c1cccc(COc2ccc3c(c2)OC[C@H]3CC(=O)O)c1 [TAK-875]
glycemic parameters in type 2 diabetic subjects [21]: improve glycemic parameters
incretin levels in type 2 diabetic patients [21]: not associated with a change in incretin levels

Compound: Cc1ccccc1C#Cc1ccc(CCC(=O)O)cc1 [TUG-424, reference compound]
agonist character [1]: partial agonists

The next lines start with results.

agonist character [1]: partial agonists
Compound: O=C(O)CCc1ccc(NCc2cccc(Oc3ccccc3)c2)cc1 [GW-9508, reference compound]

EC50 [2]: 2400 ± 100 nM
Emax [2]: 106%
Compound: C/C=C/[C@H](CC(=O)O)c1ccc(OCc2ccc(-c3cc(OC)ccc3F)cc2)cc1 [AM-8182]

activation of GPR41 (FFAR3) [4]: did not activate
EC50 ([5]; read-out: EC50 for potentiation of insulin secretion): 940 ± 600 nM
EC50 [2]: 130 ± 30 nM
Emax [2]: 105%
intrinsic activity, fold greater than AMG 837 ([1]; inositol phosphate assay): ~2 fold
EC50 ([1]; inositol phosphate assay, 1-hour accumulation, read-out: Half-maximal potency): 5.7 ± 0.8 nM
activation of PPAR alpha [8]: did not activate
activation of GPR43 (FFAR2) [9]: did not activate
activation of PPAR delta [10]: did not activate
activation of PPAR gamma [11]: did not activate
displacement of 3H-AM-1638 [14]: displaced ^3H-AM-1638
EC50 [15]: ~5000 nM
Compound: CC[C@H](CC(=O)O)c1cccc(OCc2ccc(-c3cc(OC)ccc3F)c([C@@H]3CCCC3(C)C)c2)c1F [AM-6226]
increase of insulin secretion, fold from that of AMG 837 [5]: 3–4 fold
inositol phosphate accumulation, fold increase compared to AMG 837 [6]: 3–4 fold
stimulation of insulin secretion compared with AMG 837 [7]: significantly greater
GSIS response of GPR40 knockout islets [12]: did not respond
IP production efficacy, fold greater than AMG 837 [13]: 8–10 ×

EC50 [22]: 11 ± 0.05 nM
concentration at 1 h [23]: 826 ± 66 nM
Compound: CC#C[C@@H](CC(=O)O)c1ccc(OCc2cccc(-c3ccc(C(F)(F)F)cc3)c2)cc1 [AMG 837, reference compound]
insulin stimulation compared to vehicle control ([16]; 3 mM glucose): neither AMG 837 nor AM-1638 stimulated insulin
insulin secretion ([16]; 16.7 mM glucose): increased both first and second phase insulin secretion
GLP-1 release in vitro [17]: could stimulate GLP-1 release
Glucose AUC improvement ([18]; OGTT, 100 mg/kg oral, 1 hour before glucose): 19%
doses at which maximally efficacious ([18]; preliminary experiments): ≥ 60 mg/kg
blood glucose levels ([19]; HF/STZ mice, single oral dose, no glucose challenge): stabilized blood glucose levels
GLP-1 or GIP levels in vivo ([19]; oral gavage, doses as high as 100 mg/kg): does not substantially increase
anti-diabetic effects after repeated dosing [20]: sustained anti-diabetic effects
glucose and insulin levels in healthy volunteers ([21]; phase 1 clinical trials, ref Amgen, data on file): did not lower glucose or increase insulin levels
